Square brackets hold non-standard residues; d marks the D form. Ends that are not written are not given here. Peptide text beside a SMILES is read from it.
Tests used:
[1] = tested on: Aedes aegypti larvae; test: Feeding TMOF and analog peptides to mosquito larvae (LD50); type: in vivo; conditions: newly hatched larvae on autoclaved yeast 1 mg/ml, peptide 0 to 5.0 mg/ml, microtiter plates, 7 days
From the text: TMOF can traverse the gut epithelium, enter the hemolymph and bind a gut receptor (Borovsky, D. and F. Mahmood (1995) “Feeding the mosquito Aedes aegypti with TMOF and its analogs; effect on trypsin biosynthesis and egg development,” Regulatory Peptides 57:273-281.; Borovsky et al. (1994) “Characterization and localization of mosquito-gut receptors for trypsin modulating oostatic factor using complementary peptide immunochemistry”FASEB J. 8:350-355.). This characteristic permits the testing of TMOF and its analogues by feeding them to mosquito and other pest larvae. To find out if truncated TMOF peptides have an effect on larval growth and development, a series of peptides were synthesized and tested by feeding them to mosquito larvae at concentrations of 0 to 5.0 mg/ml (Table 2). Individual, newly hatched Aedes aegypti larvae were maintained in separate microtiter plate wells on a diet of autoclaved yeast (1 mg/ml). The diet was supplemented with TMOF peptides (Table 2). An identical number of larvae maintained on yeast served as a control. […] All control groups survived and larval growth and development was normal. Since larvae swallow only a small portion of the yeast particles adsorbed the peptides, it is assumed that approximately 1 to 20 ng are taken orally at the high concentrations.

[2] = tested on: first instar Heliothis virescens; test: Feeding first instar H. virescens on TMOF analogs for 14 days; type: in vivo; design: Weight Reduction ± S.E.M.: concentration or dose not given beside the values; conditions: first instar larvae fed 14 days; for Weight Reduction ± S.E.M.: versus control
Method: (§1) Several analogues were chosen and were fed to fourth instar Heliothis virescens for seven (7) days and to first instars for fourteen (14) days (Tables 3 and 4). In both cases a reduction in weight gain and trypsin inhibition was noted (Tables 3 and 4).
(§2) Individual first instar and fourth instar larvae of H. virescens were maintained in separate plastic cups and were fed on artificial diet blocks on which different concentrations of TMOF (0 to 1.6 mg) were adsorbed. Larvae were fed for 5 to 14 days and larval weight and trypsin activity were measured at the end of the experimental periods. […] When first instar larvae were fed for 14 days, an 18% and 26% reduction in weight was observed when analogues 15 and 16 were used (Table 4).

[3] = tested on: fourth instar Heliothis virescens; test: Feeding TMOF analogs to fourth instar H. virescens: larval weight; type: in vivo; conditions: fourth instar larvae; for Weight Gain: 0.8 mg of analogue, 5 days; for Weight mg ± S.E.M. End: synthetic food and 0.8 mg of analogue, after 5 days; for Weight mg ± S.E.M. Start: weight before feeding (baseline)
Method: as §1, §2
Fourth instar larvae were weighed and fed on synthetic food and 0.8 mg of TMOF analogues for 5 days. […]. Results are average of 3 to 10 experiments S.E.M.

[4] = tested on: TTLE biosynthesis; test: Feeding TMOF analogs to fourth instar H. virescens: gut trypsin (TTLE) biosynthesis by [3H]DFP; type: in vivo, Heliothis virescens; design: Trypsin: unit not given here; conditions: fourth instar larvae, 0.8 mg of analogue, 5 days; for Trypsin: guts incubated with [3H]DFP; for Inhibition (trypsin): versus control

Compound	LD50 + S.E.M. [1] [mM]	also measured
C[C@H](NC(=O)[C@H](C)NC(=O)[C@@H]1CCCN1)C(=O)O [37. PAA, PAA] (H-Pro-Ala-Ala-OH; N-terminus and C-terminus assumed)	2.4 ± 0.34	
C[C@H](NC(=O)[C@@H]1CCCN1)C(=O)N1CCC[C@H]1C(=O)O [38. PAP, PAP] (H-Pro-Ala-Pro-OH; N-terminus and C-terminus assumed)	3.17 ± 0.14	
N[C@@H](Cc1ccccc1)C(=O)N[C@@H](CC(=O)O)C(=O)N1CCC[C@H]1C(=O)O [33. FDP, FDP] (H-Phe-Asp-Pro-OH; N-terminus and C-terminus assumed)	1.98 ± 0.6	
MPDYPPPPP [2. MPDYP5, MPDYP5]	>3.0	
YEPAP [4. YEPAP, YEPAP]	0.35 ± 0.02	
YDPAPPPPPP [1. YDPAP6, YDPAP6, reference compound]	0.2 ± 0.02	
N[C@@H](Cc1ccc(O)cc1)C(=O)N[C@H](CC(=O)O)C(=O)N1CCC[C@H]1C(=O)O [22. Y(D)DP, Y(D)DP] (H-Tyr-[dD]-Pro-OH; N-terminus and C-terminus assumed)	0.28 ± 0.01	
ADAAP (()..() TMOF analog) [ADAAP(12)]		Number of Dead Larvae [2]: 0; Weight ± S.E.M. [2]: 141 ± 9 mg; Weight Reduction ± S.E.M. [2]: 7 ± 0.4%; Weight Gain [3]: 174.1 mg; Weight mg ± S.E.M. End [3]: 209.7 ± 12 mg; Weight mg ± S.E.M. Start [3]: 35.7 ± 1.5 mg; Trypsin [4]: 2.4 ± 0.3; Inhibition (trypsin) [4]: 5 ± 0.6%
C[C@H](N)C(=O)N1CCC[C@H]1C(=O)N[C@@H](C)C(=O)O [28. APA, APA] (H-Ala-Pro-Ala-OH; N-terminus and C-terminus assumed)	1.0 ± 0.07	
YDFAP [14. YDFAP, YDFAP]	0.74 ± 0.13	Number of Dead Larvae [2]: 1; Weight ± S.E.M. [2]: 121 ± 7 mg; Weight Reduction ± S.E.M. [2]: 26 ± 1.5%; Weight Gain [3]: 164 mg; Weight mg ± S.E.M. End [3]: 201 ± 12 mg; Weight mg ± S.E.M. Start [3]: 37 ± 1.3 mg; Trypsin [4]: 2.1 ± 0.2; Inhibition (trypsin) [4]: 19 ± 1.5%
YDPFP [20. YDPFP, YDPFP]	1.7 ± 0.4	
N[C@@H](Cc1ccc(O)cc1)C(=O)N[C@@H](CC(=O)O)C(=O)N1CCC[C@H]1C(=O)O [34. YDP, YDP] (H-Tyr-Asp-Pro-OH; N-terminus and C-terminus assumed)	2.3 ± 0.4	Number of Dead Larvae [2]: 0; Weight ± S.E.M. [2]: 157 ± 10 mg; Weight Reduction ± S.E.M. [2]: 4 ± 0.2%; Weight Gain [3]: 186.3 mg; Weight mg ± S.E.M. End [3]: 223.4 ± 16 mg; Weight mg ± S.E.M. Start [3]: 37 ± 1.5 mg; Trypsin [4]: 2.1 ± 0.3; Inhibition (trypsin) [4]: 19 ± 3.2%
C[C@H](N)C(=O)N[C@@H](C)C(=O)N1CCC[C@H]1C(=O)O [29. AAP, AAP] (H-Ala-Ala-Pro-OH; N-terminus and C-terminus assumed)	1.08 ± 0.07	
N[C@@H](Cc1ccc(O)cc1)C(=O)N[C@@H](CC(=O)O)C(=O)O [41. YD, YD] (H-Tyr-Asp-OH; N-terminus and C-terminus assumed)	1.24 ± 0.06	
YFPAP [11. YFPAP, YFPAP]	0.64 ± 0.03	
YNPAP [9. YNPAP, YNPAP]	0.55 ± 0.03	
N[C@@H](Cc1ccc(O)cc1)C(=O)N[C@@H](CO)C(=O)N[C@@H](Cc1ccccc1)C(=O)O [30. YSF, YSF] (H-Tyr-Ser-Phe-OH; N-terminus and C-terminus assumed)	1.08 ± 0.12	
N[C@@H](Cc1ccc(O)cc1)C(=O)N[C@@H](CC(=O)O)C(=O)NCC(=O)O [26. YDG, YDG] (H-Tyr-Asp-Gly-OH; N-terminus and C-terminus assumed)	0.95 ± 0.11	
ADPAP [21. ADPAP, ADPAP]	2.0 ± 0.36	

Compound	LD50 + S.E.M. [1] [mM]	also measured
C[C@H](NC(=O)[C@@H](N)Cc1ccc(O)cc1)C(=O)N1CCC[C@H]1C(=O)O [36. YAP, YAP] (H-Tyr-Ala-Pro-OH; N-terminus and C-terminus assumed)	2.3 ± 0.5	
YDPAL [7. YDPAL, YDPAL]	0.52 ± 0.03	
C[C@H](N)C(=O)N[C@@H](CC(=O)O)C(=O)N1CCC[C@H]1C(=O)O [40. ADP, ADP] (H-Ala-Asp-Pro-OH; N-terminus and C-terminus assumed)	>6.6	
YDLAP [13. YDLAP, YDLAP]	0.6 ± 0.05	
N[C@H](Cc1ccc(O)cc1)C(=O)N[C@@H](CC(=O)O)C(=O)N1CCC[C@H]1C(=O)O [24. (D)YDP, (D)YDP] (H-[dY]-Asp-Pro-OH; N-terminus and C-terminus assumed)	0.51 ± 0.05	
YDPAA [19. YDPAA, YDPAA]	1.6 ± 0.13	
C[C@H](NC(=O)[C@H](C)NC(=O)[C@@H](N)CC(=O)O)C(=O)O [25. DAA, DAA] (H-Asp-Ala-Ala-OH; N-terminus and C-terminus assumed)	0.91 ± 0.06	
N[C@@H](Cc1ccccc1)C(=O)N[C@@H](CO)C(=O)N1CCC[C@H]1C(=O)O [35. FSP, FSP] (H-Phe-Ser-Pro-OH; N-terminus and C-terminus assumed)	2.3 ± 0.13	
YDPAF [3. YDPAF, YDPAF]	0.33 ± 0.2	
YDPAP [12. YDPAP, YDPAP, reference compound]	0.64 ± 0.03	
YDPLP [6. YDPLP, YDPLP]	0.5 ± 0.04	
N[C@@H](CC(=O)O)C(=O)N[C@@H](Cc1ccc(O)cc1)C(=O)O [42. DY, DY] (H-Asp-Tyr-OH; N-terminus and C-terminus assumed)	3.0 ± 0.8	
C[C@H](NC(=O)[C@@H](N)Cc1ccccc1)C(=O)N1CCC[C@H]1C(=O)O [39. FAP, FAP] (H-Phe-Ala-Pro-OH; N-terminus and C-terminus assumed)	3.8 ± 0.23	
FDPAP [5. FDPAP, FDPAP]	0.37 ± 0.15	
N[C@@H](Cc1ccc(O)cc1)C(=O)N[C@@H](CC(=O)O)C(=O)N[C@@H](Cc1ccccc1)C(=O)O [27. YDF, YDF] (H-Tyr-Asp-Phe-OH; N-terminus and C-terminus assumed)	0.97 ± 0.11	
C[C@H](NC(=O)[C@H](CC(=O)O)NC(=O)[C@@H](N)Cc1ccc(O)cc1)C(=O)O [32. YDA, YDA] (H-Tyr-Asp-Ala-OH; N-terminus and C-terminus assumed)	1.6 ± 0.13	
C[C@H](NC(=O)[C@@H]1CCCN1C(=O)[C@@H](CC(=O)O)NC(=O)[C@@H](N)Cc1ccc(O)cc1)C(=O)N1CCC[C@H]1C(=O)O [17. Y(D)DPAP, Y(D)DPAP] (H-Y[dD]PAP-OH; N-terminus and C-terminus assumed)		Number of Dead Larvae [2]: 1; Weight ± S.E.M. [2]: 152 ± 27 mg; Weight Reduction ± S.E.M. [2]: 7 ± 1%; Weight Gain [3]: 153 mg; Weight mg ± S.E.M. End [3]: 188 ± 12 mg; Weight mg ± S.E.M. Start [3]: 34.6 ± 2 mg; Trypsin [4]: 2.1 ± 0.2; Inhibition (trypsin) [4]: 15 ± 1.3%
YAPAP [8. YAPAP, YAPAP]	0.54 ± 0.13	
